Consider one molecule from patent US6943190B2, “Method of using pyruvate and/or its derivatives for the treatment of cytokine-mediated inflammatory conditions” (University of Pittsburgh-of the Commonwealth System of …, priority 2001, dated 2005).

One data set relates to IL6. Kind of data set: Peak serum IL6 in endotoxemic mice (ELISA). It counts as in vivo, Balb/C mice. The conditions noted are these: pretreatment, data not shown. On the procedure:
(§1) Endotoxin shock. Mice were injected with endotoxin (Escherichia coli lipopolysaccharide, LPS 0111:B4; Sigma Chemical Co, St. Louis, Mo.) that was dissolved in sterile pyrogen-free saline at stock concentrations of 10 mg/ml. LPS solutions were sonicated for 20 min immediately prior to use for each experiment. Mice received an LD75 dose of LPS (5 mg/kg, i.p.). Blood was collected at different times after LPS administration, allowed to clot for 2 h at room temperature, then centrifuged for 20 min at 1,500 g. Serum samples were stored at […] prior to analysis. Mortality was recorded for up to 3 weeks after injection to ensure that no additional late deaths occurred.
(§2) Cytokine measurements. TNF concentration in mouse serum and in conditioned media from RAW 264.7 cell cultures was measured by ELISA (minimum detectable concentration=10 pg/ml). […] Mouse serum IL-6 and IL-1β levels were measured using ELISA kits (R&D Systems, Inc., Minneapolis, Minn.). HMGB-1 was analyzed by western blot as previously described by Wang et al, 1999. […] Protein was electroblotting to Immun-blot PVDF membrane (Bio-rad, Hercules Calif.) and HMGB-1 was analyzed using polyclonal 241 antibody and secondary anti-rabbit horseradish peroxidase (Amersham, Pitscataway, N.J.). Standard curves were constructed using r-HMGB-1, and the intensity of the 30 kD band analyzed by densitometry. […]

Data set [1] is described as follows: Stability of pyruvate esters in aqueous solution. The format is physicochemical. As to conditions: in the presence of calcium salts; compared with sodium pyruvate.
The next data set concerns p38 MAPK. Kind of data set: LPS-induced p38 MAPK phosphorylation in RAW264.7 cells (western blot). The format is cell-based, murine. On the procedure: (a) RAW264.7 cells were stimulated with LPS in the presence of the indicated concentrations of ethyl pyruvate. The activation of NF-kB was analyzed by EMSA at 15 min and 4 hours using a ^32P-labeled NF-B probe. Ethyl pyruvate suppressed activation of NF-B in an ethyl pyruvate concentration dependent fashion. The experiment was repeated 3 times. (b) Supershift and competition studies. Nuclear extract of macrophages stimulated with LPS and incubated with antibody against p65-Rel to induce specific supershift of NF-κB complex. Nuclear extracts were incubated with 100-fold molar excess of unlabeled (cold) NP-κB or HIF-1 probe for competition analysis. (c) RAW264.7 cells were stimulated with LPS in the presence of the indicated concentration of ethyl pyruvate. The phosphorylation of p38MAPK was analyzed by western blot using antibodies against phosphorylated (thr180/tyr182) p38MAPK (in accordance with the manufacturer (New England Biolabs, Inc Cat. # 9210, Beverly, Mass.). (d) The total amount of p38 MAPK is visualized by western blot. Ethyl pyruvate prevents the phosphorylation of p38MAPK in macrophage cultures without affecting the intracellular level of total p38MAPK; and
Cell Culture. […]

The test system of a further data set is TNF. Kind of data set: Serum TNF in endotoxemic mice (ELISA). It counts as in vivo, Balb/C mice. The conditions noted are these: 2 hours after LPS. The protocol:
as §1, §2

The test system of data set [2] is lethal endotoxemia (E. coli lipopolysaccharide). Put plainly: Lethal endotoxemia (LPS) in mice: survival and morbidity. As to conditions: for survival: P<0.005. The format is in vivo, Balb/C mice. The protocol:
Animal Experiments. Male 6-8 week old Balb/C mice (20-25 g) were purchased from Harlen Sprague-Dawley (Indianapolis, Ind.) and allowed to acclimate for 7 days housed at 25° C. on a 12 h light/dark cycle. Animals were randomly grouped (10 mice per group) and assigned to a specific experiment. All animal experiments were performed in accordance with the National Institutes of Health Guidelines under protocols approved by the Institutional Animal Care and Use Committee of North Shore University Hospital and New York University Medical School.
as §1
Ethyl Pyruvate Solution: Ethyl pyruvate was prepared in solution with sodium (130 mM), potassium (4 mM), calcium (2.7 mM), chloride (130 mM), and ethyl pyruvate (28 mM); pH 7.0). For injections in mice solutions were diluted so that each injection volume was 0.4 ml per dose.
The initial evaluation of ethyl pyruvate (EP) was conducted as a therapeutic solution in lethal systemic inflammation in a standard model of murine endotoxemia. Balb/c mice received a single dose of ethyl pyruvate (40 mg ethyl pyruvate/kg mouse) 30 minutes before the onset of lethal endotoxemia (E. coli lipopolysaccharide, LPS, 5 mg LPS/kg, i.p.). Ethyl pyruvate pretreatment protected BALB/c mice from lethal endotoxemia (ethyl pyruvate survival=20/20 versus vehicle control survival=3/20; P<0.005) (FIG. 3A).
The therapeutic efficacy of the delayed administration of ethyl pyruvate after the onset of endotoxemia was assessed. Ethyl pyruvate dosing in endotoxemic mice was initiated 4 hours after the onset of endotoxemia, when clinical signs were already evident, including diarrhea, piloerection, and depressed spontaneous activity (FIG. 4A).

A further data set has as its system IL-1. Put plainly: Peak serum IL-1 in endotoxemic mice (ELISA). The format is in vivo, Balb/C mice. As to conditions: pretreatment, data not shown. On the procedure:
as §1, §2

`CCOC(=O)C(C)=O` [ethyl pyruvate]: in the data set on IL6, the “peak serum level of IL6” value is “attenuated”. The “stability of aqueous solution” value in data set [1] is on record as “more stable aqueous solution than sodium pyruvate”. Further, the “LPS-induced phosphorylation of p38 MAPK” value in the data set with p38 MAPK (antibodies against phosphorylated (thr180/tyr182) p38MAPK) was “prevented the LPS-induced phosphorylation and subsequent activation of p38 MAPK”. For the same molecule, the “total levels of p38 MAPK” value with p38 MAPK (specificity control, western blot) is “did not significantly influence the total levels of p38 MAPK”. The “serum TNF” value in the data set with TNF (pretreatment 40 mg/kg 30 min before LPS 5 mg/kg i.p., vehicle printed 17+/−4, P<0.05) was 39+−6 ng TNF/ml. For the same molecule, in the data set with TNF (pretreatment 40 mg/kg), the “release of serum TNF (in words)” value is listed as “significantly attenuates the release of serum TNF”. The “clinical signs of morbidity” value in data set [2] (delayed treatment beginning 4 hours after LPS) was “reversed clinical signs of morbidity”. In addition, the survival in data set [2] (delayed treatment: 40 mg/kg i.p. at 4, 8, 12, 24 and 30 hours after LPS, vehicle 5/20) is 17/20; in data set [2] (pretreatment: single dose 40 mg/kg i.p. 30 minutes before LPS 5 mg/kg i.p., vehicle 3/20), 20/20; in data set [2] (pretreatment: single dose 40 mg/kg i.p. 30 minutes before LPS 5 mg/kg i.p., vehicle 3/20, listed as EP) it was “conferred significant protection against lethality”. The “clinical manifestations of endotoxin morbidity” value in data set [2] (pretreatment 40 mg/kg 30 minutes before LPS 5 mg/kg i.p.) was “significantly prevented the clinical manifestations of endotoxin morbidity”. For the same molecule, in the data set with IL-1, the “peak serum level of IL-1” value was “attenuated”.
